Laboratory results as given in US9259022B2, “Sweetener” (Tate & Lyle Ingredients Americas LLC, priority 2013, dated 2016).

assay: Round table sweetness evaluation by test panelists (sucrose equivalent value, SEV); format: in vivo; conditions: equal sweet 10 SEV concentrations in neutral pH water, room temperature; references 4%-14% sucrose
Protocol: Round table evaluations were performed with test panelists. Equal sweet 10 SEV concentrations in neutral pH water were made for allulose, AceK and fructose, as well as a composition comprising allulose, AceK and fructose. The components of the test compositions are described in the below tables. The mixed compositions were calculated using the Beidler mixture equation for the sweeteners. The Beidler mixture equation for sweeteners is as follows: […]
The concentration of each component in the mixture in ppm is divided by SEV (c/R) and is plotted against concentration, c. The slope of the linear regression is […]. The y-intercept of the linear regression multiplied by Rmax is the half-maximal sweetness concentration, 1/K. Rmax and 1/K are the two parameters used in the Beidler equation
The equal-molar mixture was tested against reference samples for the panelists to determine SEV values. […] The test samples were served in 2 ounce soufflé cups (approximately 60 ml) coded with 3-digit codes at room temperature. A two minute wait period between samples was enforced. Water and unsalted crackers was available for the panelists to clear their palates before and during testing. EyeQuestion, software distributed by Logic8 BV of Elst, The Netherlands, was used for ballot development and recording of results. Results were collected in EyeQuestion for calculating approximate SEV level of each test sample.
The test products analyzed in this experiment are described below in Table 1.

Row | Structure (SMILES) | Mean sucrose equivalent value (SEV), Mean 1 | Median sucrose equivalent value (SEV), Median 1
1 | O=C(CO)C(O)C(O)C(O)CO (stereo not drawn) [Allulose, allulose] | 10.14 | 10
2 | O=C(CO)[C@@H](O)[C@H](O)[C@H](O)CO [Fructose, fructose] | 10.14 | 10
3 | CC1=CC(=O)[N-]S(=O)(=O)O1.[K+] [AceK, potassium salt of 6-methyl-1,2,3-oxathiazine-4(3H)-one 2,2-dioxide] | 9.286 | 8
